Values of other authors as cited in patent US9387185B2, “N-ω-hydroxy-L-arginine derivatives for the treatment of diseases” (Christian-Albrechts-Universität Zu Kiel, priority 2009, dated 2016).

How the values were obtained:
rats = conditions: i.v.
arginase I = target: T1, arginase I (Homo sapiens, UniProt P05089)
T1 sequence (P05089 1-322): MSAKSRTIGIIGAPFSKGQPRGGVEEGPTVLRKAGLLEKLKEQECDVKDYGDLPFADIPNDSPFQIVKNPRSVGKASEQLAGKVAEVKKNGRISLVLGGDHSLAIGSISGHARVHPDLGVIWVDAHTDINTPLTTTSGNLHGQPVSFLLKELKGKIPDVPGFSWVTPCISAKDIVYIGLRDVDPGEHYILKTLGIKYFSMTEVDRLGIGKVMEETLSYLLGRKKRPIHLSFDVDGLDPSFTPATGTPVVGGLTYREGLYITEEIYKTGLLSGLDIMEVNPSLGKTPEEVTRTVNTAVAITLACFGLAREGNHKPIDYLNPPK

Ki (arginase I): 30 to 42 µM
SMILES: N=C(NO)NCCC[C@H](N)C(=O)O [NOHA, N^ω-hydroxy-L-arginine]
effects for treating the erectile dysfunction, endothelial dysfunction and hypertension (rats): desired effects for treating the erectile dysfunction, endothelial dysfunction and hypertension could already be demonstrated
